Test results published in patent publication US20080300147A1, “Detection and Treatment of Fibrotic Disorders” (priority 2004, published 2008).

What was measured:
[1] = test system: leiomyoma smooth muscle cells (LSMC); test: Realtime PCR mRNA expression in treated LSMC; assay type: cell-based, human
Description: (§1) Isolation and Culture of Leiomyoma and Myometrial Smooth Muscle Cells. […] Only untreated tissues were used for isolation of LSMC and MSMC. […] LSMC and MSMC were cultured in 6-well plates at an approximate density of 10^6 cells/well in DMEM-supplemented media containing 10% FBS. After reaching visual confluence, the cells were washed in serum-free media and incubated for 24 hrs under serum-free, phenol red-free condition (Chegini, N et al. Mol Hum Reprod, 2002, 8:1071-8).
(§2) Quantitative RealTime PCR. Realtime PCR was utilized for verification of 10 differentially expressed and regulated genes identified in leiomyoma and myometrium as well as LSMC and MSMC from untreated and GnRHa-treated cohorts. The selection of these genes was based not only on their expression values (up or downregulation), but classification and biological functions important to leiomyoma growth and regression, regulation by ovarian steroids, GnRHa and TGF-β. They are IL-11, CITED2, Nur77, EGR3, TGIF, TIEG, p27, p57, GAS-1 and GPRK5 representing cytokines, transcription factors, cell cycle regulators and signal transduction.
(§3) Determination of TGF-β1 on global gene expression in LSMC and MSMC. All the materials utilized for this study including isolation of leiomyoma and myometrial cells are identical to those described in detail above. To determine the effect of TGF-β1 on global gene expression in LSMC and MSMC, the cells were cultured in 6-well plates at approximate density of 10^6 cells/well in DMEM-supplemented media containing 10% FBS. […] The cells were then treated with 2.5 ng/ml of TGF-β1 (R & D System, Minneapolis, […].) for 2, 6 and 12 hours. […] The cells were washed and then treated with TGF-β1 (2.5 ng/ml) for 2 hours. Parallel experiments using untreated cells were used as controls including an additional control for TGF-β type II receptor antisense and sense experiments.
(§4) Total cellular RNA was isolated from LSMC- and MSMC-treated and untreated controls and subjected to microarray analysis. To maintain standard and allow for comparative analysis, the GeneChips used in this study were utilized, simultaneously processed and their gene expression values were subjected to global normalization and transformation. Following these unsupervised assessments the coefficient of variation was calculated for each probe set across all the chips used in this study, and the selected gene expression values of this study were independently subjected to supervised learning including R programming analysis and ANOVA with false discovery rate selected at p<0.001 (Moustakas, A. Immunol Lett, 2002, 82:85-91; Verrecchia, F. et al. J Biol Chem, 2001, 276:17058-17062). The genes identified in these cohorts were analyzed for functional annotation and visualized using Database for Annotation, Visualization, and Integrated Discovery (DAVID) software with integrated GoCharts. Following the analysis, we selected 12 of the differentially expressed and regulated genes, including 10 identified and validated in leiomyoma and myometrium from untreated and GnRHa-treated cohorts, as well as LSMC and MSMC treated in vitro with GnRHa, for validation in response to TGF-β-time dependent action using Realtime PCR. They include IL-11, EGR3, CITED2, TIEG, TGIF, Nur77, p27, p57, GAS-1 and GPRK5. In addition, the expression of Runx1 and Runx2, transcription factors that interact with TGF-β receptor signaling pathways (Zavadil, J. et al. Proc Natl Acad Sci USA, 2001, 98:6686-6691), was validated in LSMC and MSMC as well as in leiomyoma and myometrium from GnRHa-treated and untreated cohorts. Detail description of the materials and methods for Realtime PCR as well as data analysis is provided in Chegini, N. et al. J Soc Gynecol Investig, 2003, 10:161-71.
(§5) Isolation and Culture of Leiomyoma and Myometrial Smooth Muscle Cells. Leiomyoma and myometrial smooth muscle cells (LSMC and MSMC) were isolated and cultured as previously described (Chegini, N. et al. Mol Hum Reprod, 2002, 8:1071-1078). […]

[2] = test system: myometrial smooth muscle cells (MSMC); test: Realtime PCR mRNA expression in treated MSMC; assay type: cell-based, human
Description: as §1, §2, §3, §4, §5

[3] = TGF-β1 2.5 ng/ml, 2, 6 and 12 hours
[4] = TGF-β1 2.5 ng/ml, 2, 6 and 12 hrs
[5] = U0126 20 μM 2 hrs, then GnRHa 0.1 μM 2 hrs
[6] = U0126 20 μM 2 hrs, then TGF-β1 2.5 ng/ml 2 hrs

TGF-β1: human recombinant TGF-β1 (R&D System), used at 2.5 ng/ml
moderately inhibiting: S100A4 mRNA expression in LSMC [1, 4] | fibulin-1C mRNA expression in LSMC [1, 4] | S100A4 mRNA expression in MSMC [2, 4]
transiently increased: Nur77 expression in LSMC [1, 3] | TGIF expression in LSMC [1, 3] | TIEG expression in LSMC [1, 3] | Nur77 expression in MSMC [2, 3] | TGIF expression in MSMC [2, 3] | TIEG expression in MSMC [2, 3]
inhibiting: CCN3 mRNA expression in LSMC [1, 4] | CCN3 mRNA expression in MSMC [2, 4]
increasing: fibulin-1C mRNA expression in MSMC [2, 4]
significantly increased: FMOD expression in MSMC ([2]; TGF-β1 2.5 ng/ml, gradual reduction to control levels after 12 hrs)
suppression: GAS1 expression in MSMC [2, 3]
biphasic fashion: p27Kip1 expression in MSMC [2, 3] | p57Kip2 expression in MSMC [2, 3]
two fold: increase of CCN4 mRNA expression in LSMC [1, 4] | increase of CCN4 mRNA expression in MSMC [2, 4]
suppressed: Gas1 expression in LSMC [1, 3] | p27Kip1 expression in LSMC [1, 3] | p57Kip2 expression in LSMC [1, 3]
either no effect, or inhibited: FMOD expression in LSMC ([1]; TGF-β1 2.5 ng/ml, inhibition after 12 hrs)
5-10 fold: increase in FMOD expression in MSMC ([2]; TGF-β1 2.5 ng/ml, declined to control levels)

N#CC(=C(/N)Sc1ccccc1N)/C(C#N)=C(\N)Sc1ccccc1N [U0126]
inhibiting: TGF-β-mediated action on FMOD in MSMC [2, 6]
increased: expression of FMOD in LSMC treated with GnRHa ([1]; U0126 20 μM 2 hrs, then GnRHa 2 hrs, compared to U0126-treated cells) | TGF-β-mediated action on FMOD in LSMC [1, 6] | basal expression of FMOD in LSMC ([1]; U0126 20 μM pretreatment 2 hrs) | expression of FMOD in MSMC treated with GnRHa ([2]; U0126 20 μM 2 hrs, then GnRHa 2 hrs, compared to untreated control) | basal expression of FMOD in MSMC ([2]; U0126 20 μM pretreatment 2 hrs)
altered: GnRHa-mediated action on CCN2 expression in LSMC [1, 5] | GnRHa-mediated action on CCN3 expression in LSMC [1, 5] | GnRHa-mediated action on CCN4 expression in LSMC [1, 5] | GnRHa-mediated action on S100A4 expression in LSMC [1, 5] | GnRHa-mediated action on fibulin-1C expression in LSMC [1, 5] | basal CCN2 mRNA expression in LSMC ([1]; U0126 20 μM pretreatment 2 hrs) | basal CCN3 mRNA expression in LSMC ([1]; U0126 20 μM pretreatment 2 hrs) | basal CCN4 mRNA expression in LSMC ([1]; U0126 20 μM pretreatment 2 hrs) | basal S100A4 mRNA expression in LSMC ([1]; U0126 20 μM pretreatment 2 hrs) | basal fibulin-1C mRNA expression in LSMC ([1]; U0126 20 μM pretreatment 2 hrs) | GnRHa-mediated action on CCN2 expression in MSMC [2, 5] | GnRHa-mediated action on CCN3 expression in MSMC [2, 5] | GnRHa-mediated action on CCN4 expression in MSMC [2, 5] | GnRHa-mediated action on S100A4 expression in MSMC [2, 5] | GnRHa-mediated action on fibulin-1C expression in MSMC [2, 5] | basal CCN2 mRNA expression in MSMC ([2]; U0126 20 μM pretreatment 2 hrs) | basal CCN3 mRNA expression in MSMC ([2]; U0126 20 μM pretreatment 2 hrs) | basal CCN4 mRNA expression in MSMC ([2]; U0126 20 μM pretreatment 2 hrs) | basal S100A4 mRNA expression in MSMC ([2]; U0126 20 μM pretreatment 2 hrs) | basal fibulin-1C mRNA expression in MSMC ([2]; U0126 20 μM pretreatment 2 hrs)
inhibited: TGF-β-mediated CCN4 expression in LSMC [1, 6] | TGF-β-mediated S100A4 expression in LSMC [1, 6] | TGF-β-mediated fibulin-1C expression in LSMC [1, 6] | TGF-β-mediated CCN3 expression in MSMC [2, 6] | TGF-β-mediated CCN4 expression in MSMC [2, 6] | TGF-β-mediated S100A4 expression in MSMC [2, 6] | TGF-β-mediated fibulin-1C expression in MSMC [2, 6]
limited effect: TGF-β-mediated action on CCN2 in LSMC [1, 6] | TGF-β-mediated action on CCN2 in MSMC [2, 6]
